Data published in patent publication US20030109537A1, “Methods and materials for treating bone conditions” (priority 2001, published 2003).

Experiments:
[1] = system: rat model for parathyroid bone disease; test: Rat model for parathyroid bone disease: pulsatile vs continuous PTH, bone histomorphometry; type: in vivo; details: rats
PDGF-A mRNA = test: RNase protection assay of steady state mRNA levels; type: in vivo, rat
Description: (§1) Induction of parathyroid bone disease. Three month-old female Sprague-Dawley rats (Harlan Sprague-Dawley, Inc., Indianapolis, Ind.) were randomly divided into 3 groups, with 5 rats per group. In group 1 (pulsatile or intermittent PTH), each rat received 80 μg/kg/day human PTH (1-34) (hPTH) in vehicle (150 mM NaCl, 1 mM HCl and 2% heat-inactivated rat serum) by subcutaneous (s.c.) injection once daily for 7 days. In group 2 (vehicle), an osmotic pump (Alza Corp., Mountainview, Calif.) that delivered vehicle alone at a rate of 1 μl/hr for 7 days was implanted in each rat. In group 3 (continuous PTH), an osmotic pump that delivered 40 μg/kg/day hPTH at a rate of 1 μl/hr for 7 days was implanted in each rat. On day 8, all rats were anesthetized with ketamine (50 mg/kg): xylazine HCl (5 mg/kg) and sacrificed by decapitation. Both tibiae were removed from each rat. Right tibiae were fixed by immersion in 70% ethanol then processed for bone histology to verify the appearance of peritrabecular fibrosis. Left tibiae were frozen in liquid N2 and stored at −80° C. until processed for RNA isolation.
Isolation of RNA. Frozen proximal tibial metaphyses were individually homogenized in guanidine isothiocyanate using a Spex freezer mill (Industries, Inc., Edison, N.J.). Total RNA was extracted from the homogenate using a modified organic solvent method. See Chomczynski et al., Anal. Biochem., 162:156-159 (1987). Isolated RNA yields were determined spectrophotometrically at 260 nm using standard methods.
RNase protection assay. Steady state mRNA levels for PDGF-A and other growth factors were determined using an RNase protection assay kit according to the manufacturer's protocol (Pharmingen, San Diego, Calif.). Quantitation of protected RNA fragments was performed by PhosphoImager analyses and normalized to glyceraldehyde-3-phosphate dehydrogenase (GAPDH) and the ribosomal structural protein L32.
RNase protection assays were performed as described in Example 1, for PDGF-A, BMP-1, BMP-6, BMP-3, and TGF-β1 to verify the microarray data. […]

[2] = system: rat model for parathyroid bone disease; test: Rat model for parathyroid bone disease: pulsatile vs continuous PTH, bone histomorphometry; type: in vivo
Description: as §1
Bone histomorphometry. Proximal metaphyses were dehydrated in a graded series of ethanol, then infiltrated and embedded in methymethacrylate (Fisher Scientific, Fair Lawn, N.J.). After embedding, 5 μm sections were cut using a microtome (Reichert-Jung Model 2065, Heidelberg, Germany), and the sections were mounted unstained. Dynamic histomorphometric cancellous bone measurements were made in the unstained sections using fluorescent microscopy to detect the injected tetracycline and calcein markers. After obtaining the cancellous bone measurements, consecutive sections were stained with toluidine blue for bone cell and peritrabecular fibrosis measurements using light microscopy. A standard sampling site of 2.8 mm was located in the secondary spongiosa of the metaphysis at 1.5 mm distal to the growth plate.
All histomorphometric measurements were made with an Osteomeasure image analysis system (OsteoMetrics, Atlanta, Ga.) coupled to a photomicroscope and personal computer. All parameters were calculated according to standardized nomenclature. See, for example, Parfitt et al., J. Bone Miner. Res., 2:595-610 (1987). Bone volume was defined as the percentage of tissue volume consisting of cancellous bone. Tetracycline and calcein labels were determined as the percentage of bone perimeter labeled with fluorochrome. Mineral apposition rate (MAR) was defined as the average width between tetracycline and calcein label divided by interlabel time of 6 days. Bone formation rate (BFR) was defined as the product of MAR and the calcein label perimeter, and was expressed per bone surface (BFR/BS), bone volume (BFR/BV), or tissue volume (BFR/TV). Osteoblast surface was defined as a palisade of large basophilic cuboidal cells directly lying on top of the osteoid, and was expressed as a percent of bone perimeter. Osteoclast surface was defined as the bone perimeter lined by multinucleated cells regardless of the presence of erosion. Fibrotic perimeter was defined as the bone perimeter lined by multilayers of fibroblasts.
A rat model of hyperparathyroidism (HPT) was developed as described in Example 1, and compared to intermittent PTH treatment. PTH results in major changes in bone metabolism in less than 1 week and these short-term changes accurately predict the long-terms effects of the hormone. To induce an anabolic course of PTH action, human recombinant PTH was administered s.c. (80 μg/kg/d). […] In contrast, no increase in osteoclast number was noted.
To mimic HPT, hPTH was infused continuously at the same dose rate (80 μg/kg/d) using a s.c. implanted osmotic pump. […] In addition, bone formation in rats treated continuously or intermittently with PTH had similar increases in bone formation after 1 week. Cancellous osteopenia was not observed. […]

[3] = continuous PTH 40 μg/kg/day osmotic pump 7 days
[4] = continuous PTH 40 μg/kg/day osmotic pump 7 days, vs untreated control
[5] = continuous PTH infusion 40 μg/kg/d
[6] = pulsatile PTH 80 μg/kg/day s.c. once daily 7 days, rats
[7] = pulsatile PTH 80 μg/kg/day s.c. once daily 7 days, rats, vs untreated control

human PTH (1-34)
time to increase in 3H-proline incorporation into bone matrix proteins ([1]; PTH s.c. 80 μg/kg/d): ≤ 24 h | time to increase in the number of fully mature osteoblasts ([1]; PTH s.c. 80 μg/kg/d): ≤ 3 days | time to upregulation of mRNA levels for bone matrix proteins (type I collagen, osteonectin, osteocalcin) ([1]; PTH s.c. 80 μg/kg/d): ≤ 16 h | Marrow fibrosis [1, 3]: Extensive^b | Osteoid surface [1, 3]: Extensive^b | Bone formation rate [1, 4]: ↑^a | Osteoblast perimeter [1, 4]: ↑^a | Osteoclast perimeter [1, 4]: ↑^b | mRNA levels for one matrix proteins [1, 4]: ↑^a | detrimental skeletal effects of continuous PTH [1, 5]: extensive peritrabecular fibrosis, osteomalacia, increased bone formation, and focal bone resorption | systemic side effects on reducing the dose rate [1, 5]: greatly reduced systemic side effects | systemic effects of continuous release ([1]; hPTH infused continuously 80 μg/kg/d, s.c. osmotic pump): severe hypercalcemia and weight loss | daily PTH pulse duration at which detrimental side effects were observed ([1]; programmed implantable osmotic pump, same quantity of PTH): ≥ 2 h | Bone formation rate ([1]; pulsatile PTH 80 μg/kg/day s.c. once daily 7 days, vs untreated control): ↑^a | effect on serum calcium levels ([1]; subcutaneous PTH 80 μg/kg/d): no effect | PTH-induced regulation of mRNA levels for BMP-1, -3, and -6, as well as TGF-β (PDGF-A mRNA; RNase protection assay verifying microarray data): confirmed | increase in the mRNA levels for PDGF-A (PDGF-A mRNA; continuous PTH, rat tibial metaphysis, RNase protection assay, normalized to L32): 3.3 fold | effect on steady state mRNA levels for PDGF-A (PDGF-A mRNA; pulsatile PTH, rat tibial metaphysis, RNase protection assay): no effect | osteoclast number ([2]; PTH s.c. 80 μg/kg/d, rats): no increase | Cancellous osteopenia ([2]; PTH-treated rats, 1 week): not observed | PTH pulse duration having the same effect as continuous PTH ([2]; programmed implantable osmotic pump, same quantity of PTH, rats): 6 h | Marrow fibrosis [2, 6]: Not observed^a | Osteoid surface [2, 6]: Minimal^a | Osteoblast perimeter [2, 7]: ↑^a | mRNA levels for one matrix proteins [2, 7]: ↑^a
